Source: patent EP3404113A1, “METHOD FOR DETECTING PROTEIN-DNA INTERACTION” (Universidad del Pais Vasco, priority 2017, dated 2018)
“Also recorded” adds a separate entry of the source.

How the values were obtained:
FOXM1-DNA = biological target: T1, FOXM1-DNA (Homo sapiens, UniProt Q08050); test: Multiplexed nanopore single-molecule measurement, FOXM1-DNA pair (Reporter 2); format: binding; conditions: increasing amounts of FDI-6
T1 construct: the FoxMIC gene (residues 222-360) was cloned in a pET-28 vector; made in house; host or cells: E. coli BL21 (DE3)
T1 sequence (Q08050 222-360): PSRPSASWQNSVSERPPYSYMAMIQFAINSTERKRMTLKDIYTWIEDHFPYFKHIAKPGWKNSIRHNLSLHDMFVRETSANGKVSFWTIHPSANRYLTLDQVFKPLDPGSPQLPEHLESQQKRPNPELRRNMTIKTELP

RepE-DNA = biological target: T2, RepE-DNA (Escherichia coli, UniProt P03856); test: Multiplexed nanopore single-molecule measurement, RepE-DNA pair (Reporter 1); format: binding; conditions: 0.87 µM RepE, 0.047 µM DNA, increasing amounts of FDI-6, n = 4
T2 construct: purified from an intein vector pTXB1 containing the ORF fused with intein at the C terminus; made in house; host or cells: E. coli BL21 (DE3)

FOXM1 = biological target: T3, FOXM1 (Homo sapiens, UniProt Q08050); test: Nanopore single-molecule measurement of the inhibition of FOXM1 binding to its DNA target sequence
T3 construct: the FoxMIC gene (residues 222-360) was cloned in a pET-28 vector; made in house; host or cells: E. coli BL21 (DE3)
T3 sequence (Q08050 222-360): T1 sequence (Q08050 222-360)
Method: The cis compartment (connected to the ground electrode and where samples were added) was filled with 5 mM MgCl2, 150 mM KCl, 10 mM HEPES pH 7.2 (to mimic physiological conditions) and the trans compartment with 5 mM MgCl2, 2 M KCl, 10 mM HEPES pH 7.2 (to increase the ionic current signal). 0.5 µL of previously heptamerized α-HL was added to the cis compartment and following the first insertion the chamber was manually perfused to remove excess of α-HL. Ionic currents through the αHL pore were measured using Ag/AgCl electrodes with agar bridges in 3 M KCl, and balanced before measurements. The electrodes were connected to an amplifier (Axopatch 200B, Molecular Devices), the signal was filtered at 5 kHz (lowpass Bessel filter) and acquired at 20 kHz with a digitizer (Digidata 1440A, Molecular Devices). All experiments were repeated in at least 3 different pores. Raw data was first analyzed with pClamp software (Molecular Devices) to obtain the current and dwell time of the ionic current levels, >90% of the signals longer than 10 ms were the characteristic signals described in the main text. The residual current of a level is defined as the ionic current of the level divided by the ionic current of the open pore. Data analysis was carried out with Igor Pro (Wavemetrics) and molecular representations were performed using Chimera (UCSF).^47 The confidence interval of the kinetic rates were estimated using: kupp = k⋅(1+z/√n) [formula] klow = k⋅(1−z/√n) [formula] Transcription factors are frequently considered as ideal targets for cancer therapy, yet finding molecules capable of specifically inhibiting their interactions with DNA is challenging. Motivated by the high sensitivity of our measurements, we aimed to explore the capabilities of the nanopore to detect small molecule activity. We choose the DNA binding domain of Forkhead box protein M1 (FOXM1), which is overexpressed in many cancers and for which a molecule that inhibits binding to its target sequence has been reported, FDI-6^37 (Figure 3). When a DNA hairpin containing the binding sequence^38 and a 5' overhang is subjected to nanopore analysis we observe the characteristic ionic current signal reflecting the threading, unzipping and translocation of the DNA (Figure 3a). […] In agreement with previous reports,^29 we attribute the differences in unzipping kinetics to the differences in the first base pair to be unzipped. The RepE oligonucleotide begins with G-C while that of FOXM1 begins with A-T. Following the addition of FOXM1 protein, events showing an additional step are detected (Figure 3b), which correspond to the threading of protein-bound DNA molecules, detachment of the protein, unzipping and translocation of the DNA through the pore. […]

DNA-hairpin reporter = test: Nanopore detection of a non-specific DNA interacting compound; format: binding

Row | Structure (SMILES) | fraction of events assigned to Reporter 2 with bound protein (FOXM1-DNA) | effect on the interaction between RepE and its target sequence (RepE-DNA) | mechanism of action deduced from kinetics of DNA unzipping and protein detachment (FOXM1) | Kd (FOXM1; affinity of the inhibitor for the protein, model: one site, reversible, binding completely prevents protein-DNA interaction, mean ± SD, n=7) | koff (FOXM1; protein detachment from DNA in the presence of FDI-6, +90 mV, 95 % CI, n = 3, compound absent 57 [96 - 18], read-out: koff,90mV,FD16) | fraction of events with a protein bound to DNA (FOXM1; sequential additions of FDI-6 to FOXM1-DNA solution) | ionic current traces (DNA-hairpin reporter; 2.5 mM doxorubicin added to a solution of RepE and its DNA-hairpin reporter) | ionic current signal (DNA-hairpin reporter; interaction of doxorubicin with the DNA)
1 | Nc1c(C(=O)Nc2ccc(F)cc2)sc2nc(-c3cccs3)cc(C(F)(F)F)c12 [FDI-6] | decreased | had no effect; also recorded: in none of our measurements was the RepE-DNA pair affected | binds the protein (not the DNA), and that binding is competitive | 139 ± 73 µM | 49 s⁻¹ | decreases | – | –
2 | COc1cccc2c1C(=O)c1c(O)c3c(c(O)c1C2=O)C[C@@](O)(C(=O)CO)C[C@@H]3O[C@H]1C[C@H](N)[C@H](O)[C@H](C)O1 [doxorubicin] | – | – | – | – | – | – | no characteristic signal for DNA unzipping and translocation was detected | radically changed the ionic current signal, giving noisy long-lived events
